Data taken from publication PMC5739799 (Oncotarget, 2017).
Where “and” joins values, the source holds several entries; their conditions need not be identical. Equal entries are not always repeated.

Columns and labels:
H129 hepatoma = experiment: Syngenic orthotopic H129 hepatoma mouse model, survival; assay type: in vivo, C3H/HeN mice; settings: sorafenib 30 mg/kg/day oral, separate study; vehicle 28 days
Excerpt: C3H/HeN mice aged 10–12 weeks with an average weight of 25 g were used for this model and were obtained from Charles River (Sulzfeld, Germany). Experiments were initiated after an acclimatizing period of at least 8 days. Syngenic murine H129 hepatoma cells (obtained from Dr. V. Schmitz, University of Bonn, Germany) were cultivated in RPMI medium, containing 10% fetal calf serum (FCS) and 5% glutamine. Cells were harvested in a subconfluent state (70–80%), prepared for injection of 5×10^4 cells/20 μL in growth factor-free Matrigel, and transplanted in the left upper liver lobe. Animals with surgical failures were marked and excluded from the experiment. Treatment was initiated 4–5 days after transplantation. One set of mice received regorafenib 10 mg/kg once daily, vehicle solution once daily, or no treatment (n=8 per treatment group). […] Treatments were given orally via gavage. The vehicle solution contained 10% Transcutol, 10% Cremophor, and 80% 0.9% NaCl. Animals were weighed twice a week and monitored daily for behavior and wound healing. […] Due to ascites formation in the peritoneum (a symptom of the disease), body weight was not used as part of the assessment. Animals were dissected to assess the cause of death unless they had died in their cage overnight.
(§1) In the syngenic orthotopic H129 model, differences in survival times between groups were analyzed for significance using log-rank tests. Analysis of tumor volumes of the HCC-PDX models was performed with log2-transformed values on defined days of measurement based on the assumption of their log-normal distribution. […] All respective statistical test results were derived from a common linear model that allows for individual variances in the different groups. The adjustment for multiple testing was carried out using Šidák correction at a significance level of 0.05. […] Bead-based western data were analyzed (described in [15]) using the MEV 4.8.1 software package. […]

HCC-PDX model 10 = experiment: Patient-derived HCC xenograft model 10, tumor growth; assay type: in vivo, BALB/c nude mice
Method: (§2) The PDX studies were carried out by WuXi AppTec (Shanghai, China). HCC-PDX models were originally established from surgically resected tumor tissue that was implanted in 6–8-week-old female BALB/c nude mice. Animal studies were performed according to the guidelines approved by the Institutional Animal Care and Use Committee of Wuxi AppTec, which follow the guidance of the Association for the Assessment and Accreditation of Laboratory Animal Care. Animals were routinely monitored for their health status and their body weights. Treatment was suspended and/or doses reduced at body weight losses >10%. Animals were euthanized when the tumor size exceeded 2000 mm^3. Pieces from tumor xenografts (∼30 mm^3) from passages 4–8 (ST1) were implanted subcutaneously at the right flank, and tumors were grown to an average size of about 150–200 mm^3. […] Tumor size was measured twice weekly using caliper measurements. Tumor volume (mm^3) was calculated using the formula 0.5 a × b^2, where a and b are the long and short diameters of the tumor, respectively. TGI was assessed either by calculating the ratio of the mean tumor volumes of treated and control groups or by determination of the RTV, which relates tumor volumes at any given day of treatment to the volume at the first treatment day.
(§3) In the syngenic orthotopic H129 model, differences in survival times between groups were analyzed for significance using log-rank tests. Analysis of tumor volumes of the HCC-PDX models was performed with log2-transformed values on defined days of measurement based on the assumption of their log-normal distribution. […] All respective statistical test results were derived from a common linear model that allows for individual variances in the different groups. The adjustment for multiple testing was carried out using Šidák correction at a significance level of 0.05. Back transformation of the mean difference of log2-transformed tumor volumes led to the ratios of the compared groups, whereby ratios of 1 reflect no difference in tumor volumes and ratios below or above 1 reflect smaller or larger tumor volumes, respectively, of the respective second group. The analyses of RTV were carried out in a similar fashion without the log2 transformation of values. Bead-based western data were analyzed (described in [15]) using the MEV 4.8.1 software package. A p-value <0.05 was regarded as significant. All statistical analyses were performed with SAS® 9.4 [34].

HCC-PDX model 19 = experiment: Patient-derived HCC xenograft model 19, tumor growth; assay type: in vivo, BALB/c nude mice
Method: as §2, §3

HCC-PDX model 20 = experiment: Patient-derived HCC xenograft model 20, tumor growth; assay type: in vivo, BALB/c nude mice
Method: as §2, §3

HCC-PDX model 61 = experiment: Patient-derived HCC xenograft model 61, tumor growth; assay type: in vivo, BALB/c nude mice
Method: as §2, §3

HCC-PDX model 101 = experiment: Patient-derived HCC xenograft model 101, tumor growth; assay type: in vivo, BALB/c nude mice
Method: as §2, §3

HCC-PDX model 141 = experiment: Patient-derived HCC xenograft model 141, tumor growth; assay type: in vivo, BALB/c nude mice
Method: as §2, §3

HCC-PDX model 159 = experiment: Patient-derived HCC xenograft model 159, tumor growth; assay type: in vivo, BALB/c nude mice
Method: as §2, §3

HCC-PDX model 217 = experiment: Patient-derived HCC xenograft model 217, tumor growth; assay type: in vivo, BALB/c nude mice
Method: as §2, §3

[1] = system: 10 patient-derived HCC xenograft (HCC-PDX) models; experiment: Panel of 10 HCC-PDX models, overall response and tolerability; assay type: in vivo, BALB/c nude mice
Method: as §2, §1

[2] = Steady-state plasma pharmacokinetics after oral dosing for 5 days; assay type: in vivo, BALB/c nu/nu mice
Method: Pharmacokinetic studies were performed in 6–8-week-old female BALB/c nu/nu mice (Charles River, Sulzfeld, Germany). […] Parent compounds and metabolites M-2 and M-5 were analyzed in plasma samples using validated bioanalytical liquid chromatography-tandem mass spectrometry (LC-MS/MS) methods according to an experimental protocol described earlier. PK parameters, namely the AUC(0–24)ss and Cmax, were calculated from plasma concentrations using a non-compartmental analysis.

[3] = day 28, R 10 / S 30 mg/kg/day oral starting dose
[4] = plasma analyte after oral sorafenib tosylate 30 mg/kg/day (21.9 mg/kg/day sorafenib) for 5 days

CNC(=O)c1cc(Oc2ccc(NC(=O)Nc3ccc(Cl)c(C(F)(F)F)c3)cc2)ccn1 [Sorafenib]
Median survival, days (95% CI) (H129 hepatoma): 33 days and 33 (27, 35) days | Mean TV (HCC-PDX model 10; day 12, R 10 / S 30 mg/kg/day oral): 607.16 mm^3 | log TV Differences of least square-means, compound vs vehicle (HCC-PDX model 10; day 12, log2-transformed TV): -17,966 | RTV (HCC-PDX model 10; end of study (RTV analysis day R 40, S 30)): 13.39 | Mean TV (HCC-PDX model 19; [3]): 496.54 mm^3 | log TV Differences of least square-means, compound vs vehicle (HCC-PDX model 19; day 28, log2-transformed TV): -0.6887 | RTV Differences of least square-means, compound vs vehicle (HCC-PDX model 19; day 42): -29.3 | RTV (HCC-PDX model 19; end of study, day 42): 4.70 | Mean TV (HCC-PDX model 20; day 21, R 10 / S 30 mg/kg/day oral): 737.74 mm^3 | log TV Differences of least square-means, compound vs vehicle (HCC-PDX model 20; day 21, log2-transformed TV): -0.3573 | RTV Differences of least square-means, compound vs vehicle (HCC-PDX model 20; day 42): -12.2 | RTV (HCC-PDX model 20; end of study, day 42): 10.55 | Mean TV (HCC-PDX model 61; day 25, R 10 / S 30 mg/kg/day oral): 424.86 mm^3 | RTV (HCC-PDX model 61; end of study (RTV analysis day R 42, S 36)): 5.28 | Mean TV (HCC-PDX model 101; [3]): 416.97 mm^3 | RTV (HCC-PDX model 101; end of study, day 42): 5.37 | Mean TV (HCC-PDX model 141; [3]): 139.51 mm^3 | RTV (HCC-PDX model 141; end of study, day 42): 2.16 | Mean TV (HCC-PDX model 159; [3]): 1144.22 mm^3 | log TV Differences of least square-means, compound vs vehicle (HCC-PDX model 159; day 28, log2-transformed TV): -0.3943 | RTV (HCC-PDX model 159; end of study, day 35): 9.73 | Mean TV (HCC-PDX model 217; day 13, R 10 / S 30 mg/kg/day oral): 1087.45 mm^3 | log TV Differences of least square-means, compound vs vehicle (HCC-PDX model 217; day 13, log2-transformed TV): -10,119 | RTV (HCC-PDX model 217; end of study (RTV analysis day R 24, S 20)): 10.84 | Models with significant tumor growth inhibition ([1]; 10 HCC-PDX models, regorafenib 10, sorafenib 30 mg/kg/day oral): 7/10 | Dose reductions and/or treatment interruptions ([1]; HCC-PDX models, sorafenib compared with regorafenib): more often | AUC(0–24)ss (percent of total) ([2]; after oral sorafenib tosylate 30 mg/kg/day for 5 days, total = molar sum of sorafenib and M-2): 99% of total | AUC(0–24)ss [2, 4]: 177 µM·h | Cmax [2, 4]: 23.9 µM | Estimated Cmax ([2]; sorafenib 30 mg/kg/day related to free base (HCC-PDX study dose), assuming dose linearity): 33.6 µM | Cumulated maximum concentration (Cmax) ([2]; sorafenib tosylate 30 mg/kg once daily for 5 days, parent plus metabolites): 24.5 µM
